# Read-outs that look alike come from different tables or passages of the source. Ends that are not written are not given here.
# Key:
# α-glucosidase = target: α-glucosidase; design: method as in PMID 31139399; conditions: soy protein-derived peptides; cited from earlier work
# human erythrocytes = experiment: hemolytic assay; assay type: cell-based
# Protocol: The hemolytic potential of the lead peptides was determined following an established erythrocyte hemolysis protocol. In brief, 15 mL of venous blood was drawn from a healthy individual, centrifuged at 3000 rpm for 10 min, and the plasma was discarded. The residual pellet (RBCs) was washed 3 times with PBS (pH 7.4, 0.1 M), and the resultant pellet was resuspended in PBS in a 1:10 ratio. Subsequently, 0.9 mL of the RBC suspension was incubated with 0.1 mL of peptides at various concentrations, a negative control (100 μL PBS + 900 μL RBC suspension), and a positive control (100 μL of 0.5% Triton-X-100 + 900 μL of RBC suspension), and incubated at 37 °C for 24 h. Post incubation, all tubes were centrifuged at 3000 rpm for 10 min. 0.1 mL of the supernatant was then transferred to 96-well plates, and the absorbance of the supernatant was read at 540 nm. […] The corrected values were calculated as Acontrol=Apos−Aneg and Asample=Atest−Aneg where Apos , Aneg and Atest are the absorbance values of the positive control, negative control, and peptide-treated sample (given concentration), respectively.
# [1] = target: T1, porcine pancreatic α-amylase (Sus scrofa, UniProt P00690); experiment: α-amylase inhibition assay; assay type: biochemical
# T1 construct: purchased SRL (Sisco Research Laboratories)
# T1 sequence (P00690 16-511): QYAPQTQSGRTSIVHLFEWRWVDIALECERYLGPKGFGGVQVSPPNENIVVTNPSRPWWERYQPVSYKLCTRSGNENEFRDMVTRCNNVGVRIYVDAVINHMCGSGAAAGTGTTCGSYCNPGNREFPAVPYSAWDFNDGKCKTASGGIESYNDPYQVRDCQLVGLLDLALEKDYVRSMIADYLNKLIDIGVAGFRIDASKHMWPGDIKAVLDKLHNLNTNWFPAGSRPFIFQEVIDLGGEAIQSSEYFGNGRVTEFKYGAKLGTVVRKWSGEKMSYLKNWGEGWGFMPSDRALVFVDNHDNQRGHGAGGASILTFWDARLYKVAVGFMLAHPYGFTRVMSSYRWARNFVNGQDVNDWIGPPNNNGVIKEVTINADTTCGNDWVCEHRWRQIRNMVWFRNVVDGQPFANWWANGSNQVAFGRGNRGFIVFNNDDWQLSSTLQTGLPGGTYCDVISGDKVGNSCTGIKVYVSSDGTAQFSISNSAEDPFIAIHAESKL
# Protocol: The enzymatic reaction was initiated by adding the starch substrate and allowed to proceed for 15 min. The reaction was then terminated by adding the 3,5-dinitrosalicylic acid (DNSA) reagent, and the mixture was heated to boiling for 5 min. […] IC50 values were obtained from plots of percentage inhibition versus sample concentration.
# aldose reductase = aldose reductase (Homo sapiens, UniProt P15121); experiment: aldose reductase inhibition assay; assay type: biochemical
# Protocol: The aldose reductase inhibition assay was performed according to the method described by Alharbi et al.. Briefly, a 1 mL reaction mixture comprised 0.87 mL of 100 mM Sodium phosphate buffer (pH 6.2), 0.05 mL of 3 mM NADPH, 0.01 mL of human aldose reductase (recombinant, 0.2 U/mL), with the enzyme’s activity being 0.2 IU/mL, and 0.02 mL of test compounds (designated as peptide 1 and peptide 2) at different concentrations. 0.05 mL of the substrate (DL-glyceraldehyde, five mM) was incubated in the reaction mixture for 3 min at 25 °C. Enzyme activity was determined by measuring the reduction in NADPH absorption at 340 nm over 10 min. […] Aldose reductase inhibitory activity was expressed as the percentage of inhibition.
# [2] = within 24 h at 5 mg/mL; cited from earlier work
# [3] = cited from earlier work
substance,measurement,setting,value
"LPLPVLK [soy protein-derived peptide, literature]",IC50,α-glucosidase,237.4 ± 0.52 µM
"MQIFVK [Peptide 1, MQIFVK]",Hemolytic Assay (HC50),human erythrocytes,220.85 ± 0.20 µg/mL
same,Hemolytic Assay (HC50) (value in bracket),"human erythrocytes; red cells of human, 24 h",288.70 µM
same,IC50,"[1]; mean ± SD, read-out: α-Amylase Inhibition IC50 (converted)",115 µM
same,IC50,[1]; read-out: α-Amylase Inhibition IC50 (value in bracket) (converted),115 µM
same,IC50,"aldose reductase; mean ± SD, read-out: Aldose Reductase Inhibition IC50 (converted)",29.4 µM
same,IC50,aldose reductase; read-out: Aldose Reductase Inhibition IC50 (value in bracket) (converted),29.4 µM
SWLRL,IC50,α-glucosidase,182.1 ± 0.74 µM
Triton-X-100 [reference compound],Hemolytic Assay (HC50),"human erythrocytes; human RBC, 37 °C, 24 h",105.25 ± 0.17 µg/mL
same,Hemolytic Assay (HC50) (value in bracket),"human erythrocytes; human RBC, 37 °C, 24 h",162.67 µM
same,Hemolytic Assay (HC50),"human erythrocytes; human RBC, 37 °C, 24 h, listed as Triton X-100",105.25 µg/mL
"VVFPGCPE [Ginkgo biloba peptide, literature]",methylglyoxal scavenging,[2],up to 66.50%
WLRL,IC50,α-glucosidase,162.3 ± 0.74 µM
YFYPEL,superoxide scavenging activity,[3],65.8 µg/mL
same,EC50,[3]; read-out: superoxide scavenging activity (value in bracket),79.2 µM

# — publication PMC12785583, “Coconut Milk-Derived Bioactive Peptides as Multifunctional Agents Against Hyperglycemia, Oxidative Stress, and Glycation: An Integrated Experimental and Computational Study” (International Journal of Molecular Sciences, 2025)
